Results: paper PMC8878317, “Chemogenomics identifies acetyl-coenzyme A synthetase as a target for malaria treatment and prevention” (Cell Chemical Biology, 2022)

Tested on: P. falciparum 3D7 parasites
Assay: Metabolomic profiling of compound-treated parasites (LC/MS);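 on Metabolite data: 3-Phosphoglycerate: Log2 fold change in abundance versus untreated parasite controls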;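 on Metabolite data: Myo-Inositol: Log2 fold change in abundance versus untreated parasite controls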;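 on Metabolite data: N-Carbamoyl-L-Aspartate: Log2 fold change in abundance versus untreated parasite controls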;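 on Metabolite data: Nicotinate: Log2 fold change in abundance versus untreated parasite controls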
Format: cell-based
Parameters: Metabolite data: dTMP / Metabolite data: GMP / Metabolite data: S-Adenosyl-L-Homocysteine / Metabolite data: 1_3-Bisphosphoglyceric acid: scale not given here
Summary of the method: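 Magnetically purified trophozoites (1×10^8 parasites/mL) recovered 1 h in RPMI 1640, incubated a further 2.5 h, quenched in 90% methanol with labeled aspartate. Extracts analysed by reverse-phase C18 LC with negative-mode Orbitrap MS; peak areas normalized to internal standards, blank-subtracted and averaged by condition.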

Structure (SMILES): O=C1C(O)=C([C@H]2CC[C@H](c3ccc(Cl)cc3)CC2)C(=O)c2ccccc21 [Atovaquone, reference compound]
- Metabolite data: 1_3-Bisphosphoglyceric acid: 0
- Metabolite data: 2_3-Diphosphoglyceric acid: -0.24
- Metabolite data: 3-Phosphoglycerate: 0
- Metabolite data: 4-Aminobutyrate: 0.16
- Metabolite data: 4-Phosphopantothenate: -0.34
- Metabolite data: 4-phosphopantetheine: 0
- Metabolite data: 5-aminopentanoic acid: 0
- Metabolite data: 5-phosphoribosyl-1-pyrophosphate: 0
- Metabolite data: 6-Phospho-D-Gluconate: 0.06
- Metabolite data: ADP-D-Glucose: 0.04
- Metabolite data: Acetyl-CoA: -0.68
- Metabolite data: Acetyllysine: -0.01
- Metabolite data: Aconitate: 0.31
- Metabolite data: CDP: -0.84
- Metabolite data: CDP-Ethanolamine: -0.15
- Metabolite data: CDP-choline: 0
- Metabolite data: CMP: -0.8
- Metabolite data: CTP: -0.85
- Metabolite data: Citrate/Isocitrate: -0.17
- Metabolite data: Cyclic-AMP: 0.13
- Metabolite data: Dihydroorotate: 4.84
- Metabolite data: FAD: 0.09
- Metabolite data: FMN: -1.11
- Metabolite data: Fructose-1,6-Bisphosphate: 0.15
- Metabolite data: Fumarate: 0.18
- Metabolite data: GDP: -0.12
- Metabolite data: GMP: 0.4
- Metabolite data: GTP: 0.09
- Metabolite data: Glucose-1/6-Phosphate: -0.03
- Metabolite data: Glutathione Disulfide: 0.11
- Metabolite data: Hexose: 0
- Metabolite data: Hydroxyisocaproic acid: 0
- Metabolite data: Indole: 0.06
- Metabolite data: Ketoleucine: 0
- Metabolite data: L-arginino-succinate: 0
- Metabolite data: Lactate: 0.09
- Metabolite data: Malate: 0.05
- Metabolite data: Myo-Inositol: -0.06
- Metabolite data: N-Acetyl-Glutamate: 0.13
- Metabolite data: N-Acetyl-L-Alanine: 0.22
- Metabolite data: N-Acetyl-L-Ornithine: -0.16
- Metabolite data: N-Carbamoyl-L-Aspartate: 4.58
- Metabolite data: NAD+: 0.08
- Metabolite data: NADH: 1.7
- Metabolite data: NADP+: -0.1
- Metabolite data: NADPH: 0.32
- Metabolite data: Nicotinate: -0.09
- Metabolite data: Octulose 8/1-Phosphate: -0.01
- Metabolite data: Orotate: 0.81
- Metabolite data: PD: 0
- Metabolite data: PE: 0
- Metabolite data: PEEK: 0
- Metabolite data: Phenol Red: 0
- Metabolite data: Pyroglutamic acid: 0.06
- Metabolite data: S-Adenosyl-L-Homocysteine: 0.32
- Metabolite data: S-methyl-5'-thioadenosine: -0.26
- Metabolite data: SD: 0
- Metabolite data: Sedoheptulose Bisphosphate: 0.01
- Metabolite data: UDP: -1.17
- Metabolite data: UDP-D-Glucose: -0.06
- Metabolite data: UDP-D-Glucuronate: -0.13
- Metabolite data: UDP-N-Acetyl-Glucosamine: -0.25
- Metabolite data: UMP: -0.68
- Metabolite data: UTP: -1.12
- Metabolite data: a-ketoglutarate: -0.04
- Metabolite data: acetyl-aspartate: 0
- Metabolite data: arginine: 0
- Metabolite data: asparagine: 0
- Metabolite data: aspartate: 0
- Metabolite data: biotin: 0
- Metabolite data: chlorpropamide: 0
- Metabolite data: coenzyme A: 0
- Metabolite data: dAMP: -0.09
- Metabolite data: dATP: 0.28
- Metabolite data: dCDP: -0.01
- Metabolite data: dCMP: -0.39
- Metabolite data: dCTP: -0.38
- Metabolite data: dGDP/ADP: 0
- Metabolite data: dGMP/AMP: -0.1
- Metabolite data: dGTP/ATP: 0
- Metabolite data: dTDP: -0.95
- Metabolite data: dTMP: -0.81
- Metabolite data: dTTP: -0.98
- Metabolite data: folate: 0
- Metabolite data: glucono-lactone: 0
- Metabolite data: glutamate: 0
- Metabolite data: glutamine: 0
- Metabolite data: glutathione: 0
- Metabolite data: histidine: 0
- Metabolite data: hydroxyproline/Aminolevulinate: 0
- Metabolite data: isoleucine: 0
- Metabolite data: leucine: 0
- Metabolite data: maleic acid: 0
- Metabolite data: methionine: 0
- Metabolite data: nicotinamide mononucleotide: 0
- Metabolite data: orotidine-5'-phosphate: 0
